Laboratory results reported in US20250333745A1, “METHODS AND COMPOSITIONS FOR TREATMENT OF POLYCYSTIC KIDNEY DISEASE” (Regulus Therapeutics Inc., priority 2016, published 2025).

Assays:
miR-17 family = assay: In vitro assays of tool compound against miR-17 family
Protocol: Previous studies using a research tool anti-miR-17 compound identified a role for miR-17 in PKD in two different models of PKD, the Pkd2-KO model (also known as the Pkhd1/cre; Pkd2^F/F model) and the Pcy model. The research tool modified oligonucleotide complementary to miR-17 was tested in mouse models of PKD. The anti-miR-17 compound was a fully phosphorothioated oligonucleotide 19 linked nucleosides in length (5′-CTGCACTGTAAGCACTTTG-3′; SEQ ID NO: 7), with DNA, 2′-MOE and S-cEt sugar moieties.

[1] = In vitro metabolic stability in monkey liver lysate; assay type: in vitro ADME; conditions: 24-hour incubation of RG4326
Protocol: Due to their reduced capacity for serum protein binding, which is a property that drives oligonucleotide distribution in the body, short oligonucleotides are not necessarily expected to have pharmacokinetic properties that make them suitable for use as drugs. RG4326 was incubated in mouse, monkey or human liver homogenate. The identity and concentration of RG4326 and metabolites was determined after a 24-hour incubation. RG4326 and metabolites were extracted using liquid-liquid extraction (LLE) and/or solid-phase extraction (SPE), which were then analyzed for identity and concentration using ion-pairing-reversed-phase high performance liquid chromatography coupled with time-of-flight mass spectrometry (IP—RP-HPLC-TOF).

5′-CTGCACTGTAAGCACTTTG-3′ (all phosphorothioate, sugars by position and methylation of C not given here; DNA, 2'-MOE and S-cEt sugars) [Tool anti-miR-17, reference compound]
inhibition of miR-17 family members (in words) (miR-17 family): hybridizes to and inhibits all members of the miR-17 family

COC1C(OP(=O)(S)OC[C@H]2O[C@@H](n3cnc4c(N)ncnc43)C(F)C2OP(=O)(S)OC[C@H]2O[C@@H](n3ccc(N)nc3=O)C(F)C2OP(=O)(S)OC[C@H]2O[C@@H](n3ccc(=O)[nH]c3=O)C(F)C2OP(=O)(S)OC[C@H]2O[C@@H](n3ccc(=O)[nH]c3=O)C(OC)C2OP(=O)(S)OC[C@]23O[C@@H](n4ccc(=O)[nH]c4=O)C(O[C@H]2C)C3OP(=O)(S)OC[C@]23O[C@@H](n4cnc5c(=O)[nH]c(N)nc54)C(O[C@H]2C)C3O)[C@@H](COP(=O)(S)OC2C3O[C@@H](C)[C@]2(COP(=O)(S)OC2C4O[C@@H](C)[C@]2(CO)O[C@H]4n2cnc4c(N)ncnc42)O[C@H]3n2cnc3c(=O)[nH]c(N)nc32)O[C@H]1n1ccc(N)nc1=O (stereo in doubt) [RG4326, ASGSCMAFCFUFUMUSGS]
Ex Vivo Liver Lysate (% Analyte), Monkey [1]: 95.9%
